Results from article PMC11252457 (Acta Pharmaceutica Sinica. B, 2024).

How the values were obtained:
[1] = system: HIV-1 mutant strain Y188L; experiment: microbe, parasite or virus in culture; type: cell-based; settings: Human immunodeficiency virus 1, MT4, read-out: EC50 Y188L
[2] = system: HIV-1 RES056 (K103N/Y181C); experiment: microbe, parasite or virus in culture; type: cell-based; settings: for EC50: Human immunodeficiency virus 1, MT4, read-out: EC50 RES056; for SI RES056: ratio of CC50/EC50, RES056
[3] = system: HIV-1 double mutant strain F227L/V106A; experiment: microbe, parasite or virus in culture; type: cell-based; settings: Human immunodeficiency virus 1, MT4, read-out: EC50 F227L/V106A
[4] = system: HIV-1 mutant strain K103N; experiment: microbe, parasite or virus in culture; type: cell-based; settings: Human immunodeficiency virus 1, MT4, read-out: EC50 K103N
[5] = system: HIV-1 mutant strain Y181C; experiment: microbe, parasite or virus in culture; type: cell-based; settings: Human immunodeficiency virus 1, MT4, read-out: EC50 Y181C
[6] = system: HIV-1 mutant strain L100I; experiment: microbe, parasite or virus in culture; type: cell-based; settings: Human immunodeficiency virus 1, MT4, read-out: EC50 L100I
[7] = system: HIV-1 mutant strain E138K; experiment: microbe, parasite or virus in culture; type: cell-based; settings: Human immunodeficiency virus 1, MT4, read-out: EC50 E138K
WT HIV-1 (IIIB) = experiment: microbe, parasite or virus in culture; type: cell-based; settings: for EC50: Human immunodeficiency virus 1, IIIB, MT4, read-out: EC50 IIIB; for SI IIIB: ratio of CC50/EC50, IIIB
[8] = Cytotoxicity in mock-infected MT-4 cells; settings: human
recombinant WT HIV-1 RT = recombinant WT HIV-1 RT (Human immunodeficiency virus type 1 group M subtype B, UniProt P03366); experiment: HIV-1 RT inhibition assay; type: biochemical

SMILES	EC50 [1] [nM]	EC50 [2] [nM]	SI RES056 [2]	EC50 [3] [nM]	EC50 [4] [nM]	EC50 [5] [nM]	EC50 [6] [nM]	EC50 [7] [nM]	EC50 (WT HIV-1 (IIIB)) [nM]	SI IIIB (WT HIV-1 (IIIB))	CC50 at 5 days [8] [nM]	IC50 (recombinant WT HIV-1 RT) [nM]
Cc1cc(/C=C/C#N)cc(C)c1Oc1nc(NC2CCN(Cc3ccc(P(=O)(OCC(C)C)OCC(C)C)cc3)CC2)nc2ccsc12 [15h, Diisobutyl (E)-(4-((4-((4-(4-(2-cyanovinyl)-2,6-dimethylphenoxy)thieno[3,2-d]pyrimidin-2-yl)amino)piperidin-1-yl)methyl)phenyl)phosphonate]	860 ± 218	2200 ± 360	8	886 ± 167	239 ± 27	1120 ± 106	712 ± 158	758 ± 249	151 ± 48.4	109	16500 ± 2050	–
Cc1cc(C#N)cc(C)c1Oc1nc(NC2CCN(Cc3ccc(P(=O)(OC(C)(C)C)OC(C)(C)C)cc3)CC2)nc2ccsc12 [9g, Di-tert-butyl (4-((4-((4-(4-cyano-2,6-dimethylphenoxy)thieno[3,2-d]pyrimidin-2-yl)amino)piperidin-1-yl)methyl)phenyl)phosphonate]	445 ± 157	> 16300	<1	637 ± 492	124 ± 26.2	719 ± 263	310 ± 57.8	179 ± 19.8	99.3 ± 37	164	16300 ± 4280	–
COP(=O)(OC)c1ccc(CN2CCC(Nc3nc(Oc4c(C)cc(C#N)cc4C)c4sccc4n3)CC2)cc1 [9b, Dimethyl (4-((4-((4-(4-cyano-2,6-dimethylphenoxy)thieno[3,2-d]pyrimidin-2-yl)amino)piperidin-1-yl)methyl)phenyl)phosphonate]	9.95 ± 5.61	193 ± 40.4	282	8.14 ± 1.85	3.72 ± 1.27	15.3 ± 10.1	10.8 ± 3.42	14.9 ± 8.6	3.63 ± 1.15	15,014	54500 ± 1290	350 ± 50
Cc1cc(C#N)cc(C)c1Oc1nc(NC2CCN(Cc3ccc(P(=O)(OCC(F)(F)F)OCC(F)(F)F)cc3)CC2)nc2ccsc12 [9e, Bis(2,2,2-trifluoroethyl) (4-((4-((4-(4-cyano-2,6-dimethylphenoxy)thieno[3,2-d]pyrimidin-2-yl)amino)piperidin-1-yl)methyl)phenyl)phosphonate]	142 ± 63.3	1300 ± 120	13	65.1 ± 19.5	45.8 ± 4.61	248 ± 60.4	165 ± 111	137 ± 83	33 ± 7.63	527	17400 ± 2850	–
CCCCOP(=O)(OCCCC)c1ccc(CN2CCC(Nc3nc(Oc4c(C)cc(/C=C/C#N)cc4C)c4sccc4n3)CC2)cc1 [15d, Dibutyl (E)-(4-((4-((4-(4-(2-cyanovinyl)-2,6-dimethylphenoxy)thieno[3,2-d]pyrimidin-2-yl)amino)piperidin-1-yl)methyl)phenyl)phosphonate]	714 ± 157	1430 ± 173	9	495 ± 168	188 ± 17	779 ± 316	265 ± 84.4	678 ± 196	173 ± 54	71	12200 ± 3910	–
Cc1cc(/C=C/C#N)cc(C)c1Oc1nc(NC2CCN(Cc3ccc(P(=O)(OC(C)C)OC(C)C)cc3)CC2)nc2ccsc12 [15f, Diisopropyl (E)-(4-((4-((4-(4-(2-cyanovinyl)-2,6-dimethylphenoxy)thieno[3,2-d]pyrimidin-2-yl)amino)piperidin-1-yl)methyl)phenyl)phosphonate]	195 ± 32.3	401 ± 321	11	79.3 ± 13	41 ± 7.63	156 ± 59	56.1 ± 13.2	162 ± 35.8	29.2 ± 9.12	152	4450 ± 570	–
CCOP(=O)(OCC)c1ccc(CN2CCC(Nc3nc(Oc4c(C)cc(/C=C/C#N)cc4C)c4sccc4n3)CC2)cc1 [15c, Diethyl (E)-(4-((4-((4-(4-(2-cyanovinyl)-2,6-dimethylphenoxy)thieno[3,2-d]pyrimidin-2-yl)amino)piperidin-1-yl)methyl)phenyl)phosphonate]	62.4 ± 22.7	110 ± 27.2	74	27.1 ± 10.7	15.5 ± 1.21	44.1 ± 25.6	20.1 ± 10.8	56.6 ± 19.1	26.4 ± 15.1	309	8150 ± 640	–
Cc1cc(C#N)cc(C)c1Oc1nc(NC2CCN(Cc3ccc(P(=O)(OC(C)C)OC(C)C)cc3)CC2)nc2ccsc12 [9f, Diisopropyl (4-((4-((4-(4-cyano-2,6-dimethylphenoxy)thieno[3,2-d]pyrimidin-2-yl)amino)piperidin-1-yl)methyl)phenyl)phosphonate]	42 ± 11.7	514 ± 57.1	216	28.4 ± 13.4	22.6 ± 7.83	73.5 ± 69.4	29.5 ± 14.2	41.3 ± 15.3	24.8 ± 14.8	4476	111000 ± 33600	–
Cc1cc(/C=C/C#N)cc(C)c1Oc1nc(NC2CCN(Cc3ccc(P(=O)(OC(C)(C)C)OC(C)(C)C)cc3)CC2)nc2ccsc12 [15g, Di-tert-butyl (E)-(4-((4-((4-(4-(2-cyanovinyl)-2,6-dimethylphenoxy)thieno[3,2-d]pyrimidin-2-yl)amino)piperidin-1-yl)methyl)phenyl)phosphonate]	55.3 ± 22.2	197 ± 30.5	38	43.7 ± 7.52	16.9 ± 7.68	46.4 ± 7.56	25.8 ± 15.8	59.7 ± 13.1	20.6 ± 8.31	359	7400 ± 2250	–
Cc1cc(/C=C/C#N)cc(C)c1Oc1nc(NC2CCN(Cc3ccc(P(=O)(OCC(F)(F)F)OCC(F)(F)F)cc3)CC2)nc2ccsc12 [15e, Bis(2,2,2-trifluoroethyl) (E)-(4-((4-((4-(4-(2-cyanovinyl)-2,6-dimethylphenoxy)thieno[3,2-d]pyrimidin-2-yl)amino)piperidin-1-yl)methyl)phenyl)phosphonate]	497 ± 49.2	747 ± 242	21	338 ± 37.1	139 ± 65.7	584 ± 272	140 ± 50.5	423 ± 149	138 ± 55.8	113	15600 ± 2670	–
Cc1cc(C#N)cc(C)c1Oc1nc(NC2CCN(Cc3ccc(P(=O)(O)O)cc3)CC2)nc2ccsc12 [compound 10, (4-((4-((4-(4-Cyano-2,6-dimethylphenoxy)thieno[3,2-d]pyrimidin-2-yl)amino)piperidin-1-yl)methyl)phenyl)phosphonic acid]	> 227000	> 227000	<1	> 227000	147000	> 227000	> 227000	160000	16500	>14	> 227000	–
Cc1cc(C#N)cc(C)c1Oc1nc(NC2CCN(Cc3ccc(P(=O)(OCC(C)C)OCC(C)C)cc3)CC2)nc2ccsc12 [9h, Diisobutyl (4-((4-((4-(4-cyano-2,6-dimethylphenoxy)thieno[3,2-d]pyrimidin-2-yl)amino)piperidin-1-yl)methyl)phenyl)phosphonate]	174 ± 94.9	13200	1	104 ± 53.1	53.3 ± 19	182 ± 40.5	135 ± 28.4	124 ± 31.4	90.9 ± 50.8	97	8780 ± 9120	–
COP(=O)(OC)c1ccc(CN2CCC(Nc3nc(Oc4c(C)cc(/C=C/C#N)cc4C)c4sccc4n3)CC2)cc1 [15b, Dimethyl (E)-(4-((4-((4-(4-(2-cyanovinyl)-2,6-dimethylphenoxy)thieno[3,2-d]pyrimidin-2-yl)amino)piperidin-1-yl)methyl)phenyl)phosphonate]	478 ± 158	603 ± 139	58	129 ± 83.3	13 ± 3.8	193 ± 74.8	85.7 ± 28	64.5 ± 31.7	19.1 ± 13.9	1827	34900 ± 2860	–
Cc1cc(/C=C/C#N)cc(C)c1Oc1nc(NC2CCN(Cc3ccc(P(=O)(O)O)cc3)CC2)nc2ccsc12 [compound 16, (E)-(4-((4-((4-(4-(2-Cyanovinyl)-2,6-dimethylphenoxy)thieno[3,2-d]pyrimidin-2-yl)amino)piperidin-1-yl)methyl)phenyl)phosphonic acid]	133000	170000	>1	43500	6270 ± 1900	30400	13600	19100	3810 ± 1520	>57	> 217000	–
CCCCOP(=O)(OCCCC)c1ccc(CN2CCC(Nc3nc(Oc4c(C)cc(C#N)cc4C)c4sccc4n3)CC2)cc1 [9d, Dibutyl (4-((4-((4-(4-cyano-2,6-dimethylphenoxy)thieno[3,2-d]pyrimidin-2-yl)amino)piperidin-1-yl)methyl)phenyl)phosphonate]	240 ± 58.3	6500 ± 483	1	248 ± 37.3	196 ± 13.6	311 ± 50.4	230 ± 54	241 ± 34.9	125 ± 39	62	7800 ± 1530	–
